# Measured values published in patent publication US20260345517A1, “DOSAGE REGIMENS FOR TREATING STARGARDT DISEASE” (Alkeus Pharmaceuticals, Inc., priority 2024, published 2026).
# “Also recorded” adds a separate entry of the source.
# Tests used:
# Format in all cases: in vivo, human
# [1] = test system: asymptomatic Stargardt disease patients; assay: TEASE-3: best-corrected visual acuity (BCVA); details: 14 mg daily
# Protocol: (§1) The tolerability and effects of gildeuretinol acetate in Stargardt Disease (Clinical trial group 3 also known as TEASE-3) study was an open-label, multicenter, case control study designed to evaluate the efficacy and safety of gildeuretinol acetate on the progression of Stargardt disease in asymptomatic individuals. The trial was conducted at multiple sites in the United States.
# To assess the safety and efficacy of gildeuretinol acetate in preventing vision loss in asymptomatic individuals, gildeuretinol acetate 14 mg capsules was administered to individuals showing early signs of retinal damage while maintaining approximately 20/20 vision and no subjective loss of vision. […] Based on the above family history and clinical observations, the individuals were likely to develop retinal lesions, loss of photoreceptors, drops in retinal sensitivity, loss of visual acuity, indicating the onset of symptoms, i.e. a progression to the symptomatic phase, including vision loss within two years, mirroring the progression observed in their older siblings.
# (§2) Patients received gildeuretinol acetate 14 mg capsules, to be taken orally once daily. Trial visits occurred every 6 months approximately following screening and treatment start visits.
# (§3) Disease progression was monitored by best-corrected visual acuity (BCVA) reported in number of Early Treatment Diabetic Retinopathy Study (ETDRS) letters, fundus autofluorescence (FAF) imaging, loss of photoreceptors (as measured by the ellipsoid zone band loss) by optical coherence tomography (OCT) according to literature (1-3) and retinal sensitivity by microperimetry.
# Measurements from the left and right eye for each patient were averaged for each visit to produce a single statistical unit for both eyes(4). For segmented linear regressions, knot times were selected so that three visits were included in the first segment.
# [2] = test system: asymptomatic Stargardt disease patients; assay: TEASE-3: fundus autofluorescence (FAF) imaging; details: 14 mg daily, two to four years, three patients
# Protocol: as §1
# (§4) To assess the safety and efficacy of gildeuretinol acetate in preventing vision loss in asymptomatic individuals, gildeuretinol acetate 14 mg capsules was administered to individuals showing early signs of retinal damage while maintaining approximately 20/20 vision and no subjective loss of vision. […]
# as §3, with “microperimetry. […]” for “microperimetry.”
# [3] = test system: Stargardt disease patients; assay: TEASE-1: growth rate of atrophic retinal lesions by fundus autofluorescence imaging; set-up: Percentage Slowing of Atrophic Retinal Lesion Growth Rate With Gildeuretinol Acetate: concentration or dose not given beside the values; details: for effect on retinal degeneration / growth of atrophic retinal lesions (in words): 14 to 24 mg daily, up to 24 months, vs placebo and natural history
# Protocol: The Tolerability and Effects of gildeuretinol acetate in Stargardt Disease (Clinical trial group 1 also known as TEASE-1) was a 24-month, multicenter, double-masked, placebo-controlled trial designed to evaluate the efficacy and safety of daily oral gildeuretinol acetate in slowing the growth of atrophic retinal lesions in Stargardt disease patients. The trial was conducted at multiple sites in the United States (NCT02402660).
# Patients 12 years or older, clinically diagnosed with Stargardt disease, with at least one ABCA4 mutation, at least one eye presenting with well-demarcated areas of reduced fundus autofluorescence, and with any visual acuity, were eligible.
# Patients were randomized to gildeuretinol acetate 14 mg capsules, gildeuretinol acetate 24 mg capsules, or placebo capsules, to be taken once daily for one year. After one year, 50% of randomly selected patients receiving placebo were crossed over in a 1:1 ratio to gildeuretinol acetate 14 mg capsules or gildeuretinol acetate 24 mg capsules for a second year.
# Gildeuretinol acetate and placebo capsules were identical appearing capsules. Patients were advised to avoid vitamin A-containing supplements and liver-based products. Fruits and vegetables contain beta-carotene, not preformed vitamin A, and could be consumed without limitation. Trial visits occurred at 8 weeks and 6, 12, 18, and 24 months following screening and randomization.
# Deidentified retinal images of patients not enrolled in the trial were included as a natural history cohort. This natural history cohort comprised patients diagnosed with Stargardt disease of any age, with two or more longitudinal fundus autofluorescence images taken at least four months apart over a maximum period of 2.5 years.
# The prespecified primary efficacy endpoint was the growth rate of the square root area of atrophic retinal lesions measured by fundus autofluorescence retinal imaging comparing gildeuretinol versus the untreated arm (placebo combined with natural history). Only well-delineated and homogeneous retinal atrophic lesions≥0.2 mm^2 with a summed area≥0.5 mm^2 were included in the primary analysis.
# The primary endpoint analysis used a linear mixed-effect model (LMEM) with repeated measures, conferring a higher power to detect smaller effects. All observed data, including both eyes, were utilized. Treatment duration was computed as a continuous measure for each visit based on years since randomization. Adjustments for baseline retinal atrophy used the baseline atrophic retinal lesion size as a fixed effect in the LMEM. Additional fixed effects included treatment arm, treatment duration, and interaction between the treatment arm and treatment duration. Random effects included patient, eye, grader to adjust for correlation between eyes within a patient, graders' assessment of an eye, and observations of the same eye over time. A random effect slope term was added to the effect of treatment duration. Patients who crossed over to gildeuretinol acetate after year one were included in the untreated arm from baseline to year one, then in the gildeuretinol acetate arm from […] upon crossing over to gildeuretinol acetate. The full analysis set (FAS) comprised all randomized patients who received at least one dose of the study drug.
# Growth rates of atrophic retinal lesions were computed as two segmented lines over the 24-month treatment period; the first segment was between 0 and 6 months, and the second was between 6 and 24 months. All available data between 0 and 24 months was used to compute the slope of each segment. The primary efficacy endpoint was the slope of the second segment. No constraints were imposed on the Y-intercept. All growth rates were calculated on a per-year basis.
# No imputations were made for missing data because the LMEM yields valid inferences under the assumption of a missing-at-random mechanism. […]
# [4] = test system: asymptomatic Stargardt disease patients; assay: TEASE-3: disease progression; details: 14 mg daily
# Protocol: as §1, §4
# as §3, with “microperimetry. […]” for “microperimetry.”
# TEASE-3: safety = details: 14 mg daily, three patients
# Protocol: as §2
# Ocular safety was assessed by retinal imaging and ocular exam, which included evaluation of the anterior and posterior segments and the lens. Systemic safety was assessed by physical exam, comprehensive clinical labs (biochemistry, hematology, lipids), and 12-lead ECG.
# [5] = test system: asymptomatic Stargardt disease patients; assay: TEASE-3: retinal sensitivity by fundus-tracking microperimetry; details: 14 mg daily
# Protocol: FIG. 4 is a graph showing mean retinal sensitivity (dB) over time in three asymptomatic Stargardt disease patients taking gildeuretinol acetate 14 mg daily. Lines show mean retinal sensitivity of both eyes. Lines are piecewise linear regressions with a knot time of 12 months. Each symbol represents a retinal sensitivity measurement for each eye. Patient 1 retinal sensitivity was measured with a Nidek MP-1 (Nidek, Gamagori, Japan). Patients 2 and 3 retinal sensitivity was measured with the CenterVue Macular Integrity Assessment or MAIA (CenterVue, Padova, Italy).
# as §1, with “States. […]” for “States.”
# as §3, with “microperimetry. […]” for “microperimetry.”
structure (smiles),measurement,setting,value
"CC(=O)OC/C=C(C)/C=C/C=C(C)/C=C/C1=C(C)CCCC1(C)C [gildeuretinol acetate, C20-D3-retinol acetate]",BCVA of treated siblings,[1]; 2 to 4 years,88±4 ETDRS letters
same,average improvement of BCVA versus untreated siblings,[1]; age-matched untreated siblings,22±13 letters
same,"average improvement of BCVA versus untreated siblings, lines of vision on the ETDRS eyechart",[1]; age-matched untreated siblings,four
same,"changes by FAF (flecks, autofluorescence, atrophy)",[2],none of the three treated asymptomatic Stargardt disease patients exhibited changes by FAF; also recorded: absence of FAF changes in all three Stargardt disease patients
same,effect on retinal degeneration / growth of atrophic retinal lesions (in words),[3],"met its prespecified primary efficacy endpoint, slowing the mean growth rate of atrophic retinal lesions relative to placebo and natural history; also recorded: slowed the expansion of retinal atrophic lesions; also recorded: slowed the progression of retinal degeneration; also recorded: slows retinal degeneration"
same,effect on retinal degeneration / growth of atrophic retinal lesions (in words),[3]; listed as Gildeuretinol acetate,"met its prespecified primary efficacy endpoint, slowing the mean growth rate of atrophic retinal lesions"
same,Percentage Slowing of Atrophic Retinal Lesion Growth Rate With Gildeuretinol Acetate,[3]; crossover patients: 12 months placebo vs. 12 months treatment,21%
same,estimated treatment effect (slowing of atrophic retinal lesion growth),[3]; depending on the calculation method,20% to 30
same,Percentage Slowing of Atrophic Retinal Lesion Growth Rate With Gildeuretinol Acetate,"[3]; excluding 2 natural history cases < 18 years old, 9 natural histories > 60 years old",21%
same,Percentage Slowing of Atrophic Retinal Lesion Growth Rate With Gildeuretinol Acetate,[3]; excluding 3 randomized patients with one confirmed mutation,20%
same,Percentage Slowing of Atrophic Retinal Lesion Growth Rate With Gildeuretinol Acetate,[3]; excluding 13 natural history cases without any confirmed ABCA4 mutations and 6 with one confirmed mutation,20%
same,Percentage Slowing of Atrophic Retinal Lesion Growth Rate With Gildeuretinol Acetate,[3]; excluding 16 natural histories with only two follow up time points,20%
same,Percentage Slowing of Atrophic Retinal Lesion Growth Rate With Gildeuretinol Acetate,"[3]; excluding natural history, randomized patients only, one slope (mm^2)",30%
same,Percentage Slowing of Atrophic Retinal Lesion Growth Rate With Gildeuretinol Acetate,"[3]; excluding natural history, randomized patients only, two slopes (mm^2)",23%
same,growth rate of atrophic retinal lesions,"[3]; gildeuretinol acetate arm (14 mg and 24 mg pooled), square root area, slope 6 to 24 months",0.19 mm/year
same,Percentage Slowing of Atrophic Retinal Lesion Growth Rate With Gildeuretinol Acetate,[3]; using a single-slope from 0 to 24 months (mm^2),31%
same,Percentage Slowing of Atrophic Retinal Lesion Growth Rate With Gildeuretinol Acetate,[3]; using untransformed areas of atrophic lesions (mm^2),28%
same,difference in growth rate of atrophic retinal lesions versus control,"[3]; vs placebo + natural history, 95% CI 0.03 to 0.07",0.05 mm/year
same,disease progression / vision loss during treatment (in words),"[4]; 2 to 4 years, asymptomatic patients",arrested loss of vision and retinal pathology; also recorded: no observable disease progression; also recorded: effectively prevented vision loss and further retinal damage; also recorded: no vision loss or disease progression
same,photoreceptor and retinal sensitivity outcomes with prolonged treatment,[4]; prolonged treatment,trended toward an improvement
same,adverse reactions linked to excessive or insufficient vitamin A,TEASE-3: safety,None of the three treated Stargardt disease asymptomatic patients exhibited adverse reactions
same,rate of change of mean retinal sensitivity,[5]; first year of treatment,−3.1±1.5 dB/year
same,rate of change of mean retinal sensitivity (improvement),[5]; years following the first year,+0.93±0.7 dB/year
